Data from PubChem BioAssay (NCI).
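In this assay, cells in 96-well plates receive the compound at five concentrations for 48 hours. Endpoints are linearly interpolated between the surrounding concentrations. TGI: concentration producing complete growth inhibition.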

Experiments:
Assay in all cases: NCI tumour cell line growth inhibition, 48 h
ACHN renal = system: ACHN renal
CAKI-1 renal = system: CAKI-1 renal
HCC-2998 colon = system: HCC-2998 colon
HOP-92 NSCLC = system: HOP-92 NSCLC
IGROV1 ovarian = system: IGROV1 ovarian
KM12 colon = system: KM12 colon
MDA-N = system: MDA-N
NCI-H226 lung = system: NCI-H226 lung
OVCAR-3 ovarian = system: OVCAR-3 ovarian
OVCAR-4 ovarian = system: OVCAR-4 ovarian
RXF 393 renal = system: RXF 393 renal
SF-539 CNS = system: SF-539 CNS
SK-OV-3 ovarian = system: SK-OV-3 ovarian
SW-620 colon = system: SW-620 colon

Compound	TGI (ACHN renal) [µM]	TGI (CAKI-1 renal) [µM]	TGI (HCC-2998 colon) [µM]	TGI (HOP-92 NSCLC) [µM]	TGI (IGROV1 ovarian) [µM]	TGI (KM12 colon) [µM]	TGI (MDA-N) [µM]	TGI (NCI-H226 lung) [µM]	TGI (OVCAR-3 ovarian) [µM]	TGI (OVCAR-4 ovarian) [µM]	TGI (RXF 393 renal) [µM]	TGI (SF-539 CNS) [µM]	TGI (SK-OV-3 ovarian) [µM]	TGI (SW-620 colon) [µM]
Cc1ccc([N+](=O)[O-])cc1S(=O)(=O)Nc1ccc(C(=O)/C=C/c2ccccc2)cc1	28	55.4	32.1	41.1	39.6	32.2	42.8	98.4	30.7	5.51	25	> 100	95	59.4
O=c1[nH]ncc2[nH]c(-c3ccccc3)cc12	> 100	> 100	> 100	> 100	> 100	> 100	> 100	> 100	> 100	> 100	96.5	–	> 100	> 100
CNC(=S)N/N=C(\C)c1cc(OC)c(OC)cc1O	> 100	> 100	> 100	–	> 100	> 100	> 100	–	> 100	–	> 100	> 100	> 100	> 100
Cn1c(=O)oc2cc(C(=O)CN3CCN(Cc4ccc5c(c4)OCO5)CC3)c(Cl)cc21	> 100	> 100	> 100	–	> 100	–	> 100	–	–	–	> 100	> 100	> 100	–
COc1ccc(-c2c(C(C)=O)c(C)n(C3OC(COC(C)=O)C(OC(C)=O)C(OC(C)=O)C3OC(C)=O)c(=S)c2C#N)cc1 (configuration not stated)	> 100	> 100	> 100	84.6	> 100	> 100	> 100	> 100	> 100	> 100	> 100	> 100	> 100	> 100
COc1ccc2cc(NC(=O)Nn3cnnc3)ccc2c1	> 100	> 100	> 100	> 100	> 100	> 100	> 100	> 100	> 100	> 100	–	> 100	> 100	> 100
CC(C)C1=CC23CCC4C(C)(C(=O)O)CCCC4(C)C2CC1C1C(=O)N(c2ccc(N4C(=O)C5C6CC7C8(C)CCCC(C)(C(=O)O)C8CCC7(C=C6C(C)C)C5C4=O)cc2)C(=O)C13 (configuration not stated)	18.4	–	16.4	28.5	–	15.2	16.1	13.7	18.6	25.1	24.7	22.4	–	21.6
COc1cc(/C=C2\N=C(c3ccccc3)N(c3ccc4c(c3)Sc3cc(N5C(=O)/C(=C/c6cc(OC)c(OC)c(OC)c6)N=C5c5ccccc5)ccc3N4)C2=O)cc(OC)c1OC	36.4	37.1	50.6	40.6	32	> 100	37.9	–	40.7	36.9	46.1	–	38.1	> 100
Oc1c(Nc2ccccc2)cc2c3c1N=NC=3CCN=2	> 100	> 100	> 100	> 100	> 100	> 100	31.7	–	> 100	> 100	> 100	> 100	> 100	> 100
COc1ccc(-c2nc(SCC(=O)N/N=C/c3ccc([N+](=O)[O-])cc3)[nH]c2-c2ccc(OC)cc2)cc1	99.4	> 75.6	31.5	> 61.3	74.8	35.9	12.9	–	> 64.5	> 100	56.6	30.8	> 81.9	> 65.7
COc1cc(S(=O)(=O)Nc2ccc(-c3csc(/N=C\c4ccccc4O)n3)cc2)ccc1Cl	> 100	> 100	–	> 100	> 100	> 100	> 100	> 100	> 100	> 100	> 100	> 100	> 100	> 100
CC1(C)CCCCC1/C=C/C(CC(O)(C(F)(F)F)C(F)(F)F)=N\Nc1ccc([N+](=O)[O-])cc1[N+](=O)[O-] (configuration not stated)	3.17	–	> 100	–	15.8	9.75	11.9	2.81	14.5	18.7	1.85	0.973	14.8	11.4
C=C1CC2(C)CCC(OC(=O)C3(C)OC3C)C(C)(OC(C)=O)C2CC1=C(C)C (configuration not stated)	> 100	–	> 100	> 100	> 100	> 100	> 100	–	> 100	> 100	> 100	> 100	> 100	> 100
N#Cc1nc(/C=C/c2cccs2)oc1N	> 100	> 100	–	> 100	> 100	> 100	> 100	–	–	–	> 100	–	> 100	> 100
CCc1nc2c(n1CC)C(=O)c1ccccc1C2=O	> 100	–	> 100	> 100	> 100	> 100	> 10	> 100	53.9	> 100	51	> 100	–	> 100
Clc1ccc(-c2cn3c(nc4ccccc43)c(/C=C/c3cccs3)n2)cc1	> 100	–	> 100	> 100	> 100	> 100	> 100	> 100	> 100	> 100	> 100	> 100	> 100	> 100
CN1CCN(Cn2nc(-c3ccccc3)n(/N=C/c3ccc(-c4ccc(Cl)cc4Cl)o3)c2=S)CC1	–	21.9	26.5	25.1	31.8	41.3	> 100	53.2	28.5	54.8	14	41	27.3	32.9

Compound	TGI (ACHN renal) [µM]	TGI (CAKI-1 renal) [µM]	TGI (HCC-2998 colon) [µM]	TGI (HOP-92 NSCLC) [µM]	TGI (IGROV1 ovarian) [µM]	TGI (KM12 colon) [µM]	TGI (MDA-N) [µM]	TGI (NCI-H226 lung) [µM]	TGI (OVCAR-3 ovarian) [µM]	TGI (OVCAR-4 ovarian) [µM]	TGI (RXF 393 renal) [µM]	TGI (SF-539 CNS) [µM]	TGI (SK-OV-3 ovarian) [µM]	TGI (SW-620 colon) [µM]
C=CC[C@H](O)[C@@](NC(=O)OCc1ccccc1)(Sc1ccc(C)cc1)C(F)(F)F	> 100	87.7	> 100	> 100	24	> 100	46.6	35.9	48.5	> 100	53	29.7	–	> 100
O=C(Nn1c(-c2ccccc2)nc2ccccc2c1=O)c1ccc([N+](=O)[O-])cc1	> 100	–	> 100	> 100	> 100	> 100	> 100	> 100	> 100	> 100	> 100	> 100	> 100	> 100
CC(=O)OC12c3ccccc3C(c3ccccc31)C1C(=O)N(Nc3ccccc3)C(=O)C12 (configuration not stated)	> 100	> 100	> 100	–	> 100	> 100	> 100	> 100	> 100	> 100	> 100	> 100	> 100	> 100
CC(C)(C)OC(=O)CCC1NC(=O)[C@@H]2Cc3c([nH]c4ccccc34)C(c3ccccc3)N2C1=O (some centres not stated)	94.5	75.8	–	67.7	98.7	65.4	45.7	86.8	48.5	> 100	45.7	–	> 100	> 100
C/C(CC(O)(C(F)(F)Cl)C(F)(F)Cl)=N\Nc1ccccc1	85.2	67.2	–	69.6	> 100	> 100	> 100	89.1	48.3	> 100	47.6	> 100	> 100	> 100
O=C(O)CSc1nc2ccccc2[nH]1	> 100	> 100	> 100	> 100	> 100	> 100	> 100	–	> 100	> 100	> 100	–	–	> 100
CCOC(=O)C(=NN(C)c1ncccc1N)C(=O)OCC	–	> 100	–	46.2	> 100	> 100	> 100	47.6	> 100	> 100	> 100	69.8	> 100	70.3
CC[C@H](C)[C@H](NC(=O)[C@H](Cc1ccc(O)cc1)NCC(F)(F)F)C(=O)OC(C)(C)C	13.9	15.7	15.8	18.8	16.4	18.7	17.7	18.8	–	13.3	17.7	21	17.3	23
CC1(C)OP(=O)(c2ccccc2)C=C1Br (configuration not stated)	> 100	> 100	> 100	> 100	> 100	> 100	> 100	> 100	> 100	> 100	–	> 100	> 100	> 100
Cc1ccc(S(=O)(=O)NN=C2C(C)CC(C(C)(C)C)CC2C)cc1 (configuration not stated)	–	31.6	32.1	30.1	> 100	31.4	40.9	34.5	31.8	29.1	–	> 100	51.7	40.6
CCOC(=O)C(=O)N=Nc1c(O)[nH]c2ccccc12	> 100	> 100	> 100	–	> 100	> 100	> 100	> 100	–	> 100	> 100	–	> 100	> 100
CCOC(=O)c1ccc(N(C)Cc2cnc3nc(N)nc(N)c3n2)cc1	20.2	45	–	–	86	> 100	> 100	41.8	34.9	–	33	33.9	51.4	> 100
CNC(=O)Nn1c(SC)nc2ccccc21	> 100	> 100	> 100	> 100	> 100	> 100	> 100	> 100	–	> 100	> 100	–	> 100	> 100
CCN(CC)CCC1CCCCN1CC(=O)N1c2ccccc2NC(=O)CC1C (configuration not stated)	> 100	> 100	> 100	> 100	> 100	> 100	> 100	> 100	> 100	> 100	> 100	> 100	> 100	–
O=C1NC(=S)NC1C(Cc1ccccc1)c1ccco1 (configuration not stated)	> 100	> 100	> 100	> 100	> 100	> 100	> 100	> 100	–	> 100	> 100	> 100	> 100	> 100
CO[C@@H]1C[C@H]2[C@@H]3CC[C@H]([C@@H](C)COC(C)=O)[C@@]3(C)CC[C@@H]2[C@@]2(C)CC[C@H]3C[C@]312	30.2	21.4	28.6	35.2	30.2	23.2	35.4	34.9	27.7	44.8	35.7	37.3	–	27.3
Nc1ccc(-c2nnc(-c3c(Cl)c(Cl)c(Cl)c(Cl)c3-c3nc4ccc(C(=O)c5ccccc5)cc4[nH]3)o2)cc1	> 100	> 100	–	> 100	> 100	> 100	19	41.2	62.6	> 100	43.2	29.3	84.2	> 100
